Assay results reported in ChEMBL document CHEMBL1828549, “Novel C-4'' modified azithromycin analogs with remarkably enhanced activity against erythromycin-resistant Streptococcus pneumoniae: the synthesis and antimicrobial evaluation” (2011).
Converted amounts (≈) assume the structure as drawn.

What was measured:
Format in all cases: functional
Streptococcus pneumoniae [1] = experiment: Antibacterial activity against erythromycin-susceptible Streptococcus pneumoniae ATCC 49619 by the broth microdilution method
Streptococcus pneumoniae [2] = experiment: Antibacterial activity against erythromycin-resistant Streptococcus pneumoniae AB11 expressing erm and mef gene by the broth microdilution method
Staphylococcus aureus [3] = experiment: Antibacterial activity against penicillin-resistant Staphylococcus aureus by the broth microdilution method
Staphylococcus aureus [4] = experiment: Antibacterial activity against […] Staphylococcus aureus ATCC 29213 by the broth microdilution method
Streptococcus pneumoniae [5] = experiment: Antibacterial activity against erythromycin-resistant Streptococcus pneumoniae B1 expressing erm gene by the broth microdilution method
Streptococcus pneumoniae [6] = experiment: Antibacterial activity against erythromycin-resistant Streptococcus pneumoniae A22072 expressing mef gene by the broth microdilution method
Staphylococcus aureus [7] = experiment: Antibacterial activity against erythromycin-susceptible Staphylococcus aureus ATCC 25923 by the broth microdilution method

CC[C@H]1OC(=O)[C@H](C)[C@@H](O[C@H]2C[C@@](C)(OC)[C@@H](O)[C@H](C)O2)[C@H](C)[C@@H](O[C@@H]2O[C@H](C)C[C@H](N(C)C)[C@H]2O)[C@](C)(O)C[C@@H](C)C(=O)[C@H](C)[C@@H](O)[C@]1(C)O [ERYTHROMYCIN]
MIC (Streptococcus pneumoniae [1]): 0.03 µg/mL (≈ 0.0409 µM)
MIC (Streptococcus pneumoniae [2]): 256 µg/mL (≈ 349 µM)
MIC (Staphylococcus aureus [3]): 0.25 µg/mL (≈ 0.341 µM)
MIC (Staphylococcus aureus [4]): 0.12 µg/mL (≈ 0.164 µM)
MIC (Streptococcus pneumoniae [5]): 128 µg/mL (≈ 174 µM)
MIC (Streptococcus pneumoniae [6]): 8 µg/mL (≈ 10.9 µM)
MIC (Staphylococcus aureus [7]): 0.06 µg/mL (≈ 0.0818 µM)

CC[C@H]1OC(=O)[C@H](C)[C@@H](O[C@H]2C[C@@](C)(OC)[C@@H](OC(=O)NCCNC(=O)c3ccc(Br)cc3)[C@H](C)O2)[C@H](C)[C@@H](O[C@@H]2O[C@H](C)C[C@H](N(C)C)[C@H]2O)[C@](C)(O)C[C@@H](C)CN(C)[C@H](C)[C@H]2OC(=O)O[C@@]21C
MIC (Streptococcus pneumoniae [1]): 0.5 µg/mL (≈ 0.479 µM)
MIC (Streptococcus pneumoniae [2]): 8 µg/mL (≈ 7.66 µM)
MIC (Staphylococcus aureus [3]): 2 µg/mL (≈ 1.92 µM)
MIC (Staphylococcus aureus [4]): 4 µg/mL (≈ 3.83 µM)
MIC (Streptococcus pneumoniae [5]): 2 µg/mL (≈ 1.92 µM)
MIC (Streptococcus pneumoniae [6]): 0.25 µg/mL (≈ 0.239 µM)
MIC (Staphylococcus aureus [7]): 1 µg/mL (≈ 0.958 µM)

CC[C@H]1OC(=O)[C@H](C)[C@@H](O[C@H]2C[C@@](C)(OC)[C@@H](OC(=O)NCCCCNC(=O)c3ccc(Cl)cc3Cl)[C@H](C)O2)[C@H](C)[C@@H](O[C@@H]2O[C@H](C)C[C@H](N(C)C)[C@H]2O)[C@](C)(O)C[C@@H](C)CN(C)[C@H](C)[C@H]2OC(=O)O[C@@]21C
MIC (Streptococcus pneumoniae [1]): 1 µg/mL (≈ 0.941 µM)
MIC (Streptococcus pneumoniae [2]): 16 µg/mL (≈ 15.1 µM)
MIC (Staphylococcus aureus [3]): 64 µg/mL (≈ 60.3 µM)
MIC (Staphylococcus aureus [4]): 16 µg/mL (≈ 15.1 µM)
MIC (Streptococcus pneumoniae [5]): 4 µg/mL (≈ 3.77 µM)
MIC (Streptococcus pneumoniae [6]): 1 µg/mL (≈ 0.941 µM)
MIC (Staphylococcus aureus [7]): 2 µg/mL (≈ 1.88 µM)

CC[C@H]1OC(=O)[C@H](C)[C@@H](O[C@H]2C[C@@](C)(OC)[C@@H](OC(=O)NNC(=O)c3ccc([N+](=O)[O-])cc3)[C@H](C)O2)[C@H](C)[C@@H](O[C@@H]2O[C@H](C)C[C@H](N(C)C)[C@H]2O)[C@](C)(O)C[C@@H](C)CN(C)[C@H](C)[C@H]2OC(=O)O[C@@]21C
MIC (Streptococcus pneumoniae [1]): 0.25 µg/mL (≈ 0.255 µM)
MIC (Streptococcus pneumoniae [2]): 32 µg/mL (≈ 32.6 µM)
MIC (Staphylococcus aureus [3]): 4 µg/mL (≈ 4.07 µM)
MIC (Staphylococcus aureus [4]): 4 µg/mL (≈ 4.07 µM)
MIC (Streptococcus pneumoniae [5]): 16 µg/mL (≈ 16.3 µM)
MIC (Streptococcus pneumoniae [6]): 1 µg/mL (≈ 1.02 µM)
MIC (Staphylococcus aureus [7]): 4 µg/mL (≈ 4.07 µM)

CC[C@H]1OC(=O)[C@H](C)[C@@H](O[C@H]2C[C@@](C)(OC)[C@@H](OC(=O)NNC(=O)c3ccccc3OC)[C@H](C)O2)[C@H](C)[C@@H](O[C@@H]2O[C@H](C)C[C@H](N(C)C)[C@H]2O)[C@](C)(O)C[C@@H](C)CN(C)[C@H](C)[C@H]2OC(=O)O[C@@]21C
MIC (Streptococcus pneumoniae [1]): 1 µg/mL (≈ 1.03 µM)
MIC (Streptococcus pneumoniae [2]): 32 µg/mL (≈ 33.1 µM)
MIC (Staphylococcus aureus [3]): 16 µg/mL (≈ 16.5 µM)
MIC (Staphylococcus aureus [4]): 16 µg/mL (≈ 16.5 µM)
MIC (Streptococcus pneumoniae [5]): 8 µg/mL (≈ 8.27 µM)
MIC (Streptococcus pneumoniae [6]): 0.5 µg/mL (≈ 0.517 µM)
MIC (Staphylococcus aureus [7]): 4 µg/mL (≈ 4.14 µM)

CC[C@H]1OC(=O)[C@H](C)[C@@H](O[C@H]2C[C@@](C)(OC)[C@@H](OC(=O)NNC(=O)c3ccc(Br)cc3)[C@H](C)O2)[C@H](C)[C@@H](O[C@@H]2O[C@H](C)C[C@H](N(C)C)[C@H]2O)[C@](C)(O)C[C@@H](C)CN(C)[C@H](C)[C@H]2OC(=O)O[C@@]21C
MIC (Streptococcus pneumoniae [1]): 1 µg/mL (≈ 0.984 µM)
MIC (Streptococcus pneumoniae [2]): 16 µg/mL (≈ 15.7 µM)
MIC (Staphylococcus aureus [3]): 4 µg/mL (≈ 3.94 µM)
MIC (Staphylococcus aureus [4]): 1 µg/mL (≈ 0.984 µM)
MIC (Streptococcus pneumoniae [5]): 4 µg/mL (≈ 3.94 µM)
MIC (Streptococcus pneumoniae [6]): 0.12 µg/mL (≈ 0.118 µM)
MIC (Staphylococcus aureus [7]): 2 µg/mL (≈ 1.97 µM)

CC[C@H]1OC(=O)[C@H](C)[C@@H](O[C@H]2C[C@@](C)(OC)[C@@H](OC(=O)NNC(=O)c3ccc(OC)c(OC)c3)[C@H](C)O2)[C@H](C)[C@@H](O[C@@H]2O[C@H](C)C[C@H](N(C)C)[C@H]2O)[C@](C)(O)C[C@@H](C)CN(C)[C@H](C)[C@H]2OC(=O)O[C@@]21C
MIC (Streptococcus pneumoniae [1]): 1 µg/mL (≈ 1 µM)
MIC (Streptococcus pneumoniae [2]): 64 µg/mL (≈ 64.2 µM)
MIC (Staphylococcus aureus [3]): 1 µg/mL (≈ 1 µM)
MIC (Staphylococcus aureus [4]): 4 µg/mL (≈ 4.01 µM)
MIC (Streptococcus pneumoniae [5]): 32 µg/mL (≈ 32.1 µM)
MIC (Streptococcus pneumoniae [6]): 0.25 µg/mL (≈ 0.251 µM)
MIC (Staphylococcus aureus [7]): 4 µg/mL (≈ 4.01 µM)

CC[C@H]1OC(=O)[C@H](C)[C@@H](O[C@H]2C[C@@](C)(OC)[C@@H](OC(=O)NCCCCNC(=O)c3ccc(F)cc3)[C@H](C)O2)[C@H](C)[C@@H](O[C@@H]2O[C@H](C)C[C@H](N(C)C)[C@H]2O)[C@](C)(O)C[C@@H](C)CN(C)[C@H](C)[C@H]2OC(=O)O[C@@]21C
MIC (Streptococcus pneumoniae [1]): 0.5 µg/mL (≈ 0.494 µM)
MIC (Streptococcus pneumoniae [2]): 64 µg/mL (≈ 63.3 µM)
MIC (Staphylococcus aureus [3]): 32 µg/mL (≈ 31.6 µM)
MIC (Staphylococcus aureus [4]): 16 µg/mL (≈ 15.8 µM)
MIC (Streptococcus pneumoniae [5]): 32 µg/mL (≈ 31.6 µM)
MIC (Streptococcus pneumoniae [6]): 8 µg/mL (≈ 7.91 µM)
MIC (Staphylococcus aureus [7]): 8 µg/mL (≈ 7.91 µM)

CC[C@H]1OC(=O)[C@H](C)[C@@H](O[C@H]2C[C@@](C)(OC)[C@@H](OC(=O)NCCCCNC(=O)c3ccc(C)cc3)[C@H](C)O2)[C@H](C)[C@@H](O[C@@H]2O[C@H](C)C[C@H](N(C)C)[C@H]2O)[C@](C)(O)C[C@@H](C)CN(C)[C@H](C)[C@H]2OC(=O)O[C@@]21C
MIC (Streptococcus pneumoniae [1]): 0.5 µg/mL (≈ 0.496 µM)
MIC (Streptococcus pneumoniae [2]): 16 µg/mL (≈ 15.9 µM)
MIC (Staphylococcus aureus [3]): 64 µg/mL (≈ 63.5 µM)
MIC (Staphylococcus aureus [4]): 32 µg/mL (≈ 31.8 µM)
MIC (Streptococcus pneumoniae [5]): 8 µg/mL (≈ 7.94 µM)
MIC (Streptococcus pneumoniae [6]): 1 µg/mL (≈ 0.993 µM)
MIC (Staphylococcus aureus [7]): 4 µg/mL (≈ 3.97 µM)

CC[C@H]1OC(=O)[C@H](C)[C@@H](O[C@H]2C[C@@](C)(OC)[C@@H](OC(=O)NCCNC(=O)c3ccc([N+](=O)[O-])cc3)[C@H](C)O2)[C@H](C)[C@@H](O[C@@H]2O[C@H](C)C[C@H](N(C)C)[C@H]2O)[C@](C)(O)C[C@@H](C)CN(C)[C@H](C)[C@H]2OC(=O)O[C@@]21C
MIC (Streptococcus pneumoniae [1]): 0.5 µg/mL (≈ 0.495 µM)
MIC (Streptococcus pneumoniae [2]): 64 µg/mL (≈ 63.4 µM)
MIC (Staphylococcus aureus [3]): 1 µg/mL (≈ 0.99 µM)
MIC (Staphylococcus aureus [4]): 16 µg/mL (≈ 15.8 µM)
MIC (Streptococcus pneumoniae [5]): 4 µg/mL (≈ 3.96 µM)
MIC (Streptococcus pneumoniae [6]): 0.5 µg/mL (≈ 0.495 µM)
MIC (Staphylococcus aureus [7]): 4 µg/mL (≈ 3.96 µM)
